Drawing on article PMC5862592, “CDK8/19 inhibition induces premature G1/S transition and ATR-dependent cell death in prostate cancer cells” (Oncotarget, 2018), this text covers remaining binding for two compounds.

What all share (experiment): biochemical
What all share (parameters): KINOMEscan active site-directed competition binding assay (DiscoveRx), 456 kinases, per cent of control at 300 nM
Holding throughout (settings): read-out: Percent of Control (%)

The target in one test is NEK3 (Homo sapiens, UniProt P51956). Put shortly: (§1)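 Compounds at 300 nmol/L screened against 456 kinases by KINOMEscan, a competition binding assay measuring displacement at the kinase active site.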
Sequence of NEK3 (P51956 whole entry): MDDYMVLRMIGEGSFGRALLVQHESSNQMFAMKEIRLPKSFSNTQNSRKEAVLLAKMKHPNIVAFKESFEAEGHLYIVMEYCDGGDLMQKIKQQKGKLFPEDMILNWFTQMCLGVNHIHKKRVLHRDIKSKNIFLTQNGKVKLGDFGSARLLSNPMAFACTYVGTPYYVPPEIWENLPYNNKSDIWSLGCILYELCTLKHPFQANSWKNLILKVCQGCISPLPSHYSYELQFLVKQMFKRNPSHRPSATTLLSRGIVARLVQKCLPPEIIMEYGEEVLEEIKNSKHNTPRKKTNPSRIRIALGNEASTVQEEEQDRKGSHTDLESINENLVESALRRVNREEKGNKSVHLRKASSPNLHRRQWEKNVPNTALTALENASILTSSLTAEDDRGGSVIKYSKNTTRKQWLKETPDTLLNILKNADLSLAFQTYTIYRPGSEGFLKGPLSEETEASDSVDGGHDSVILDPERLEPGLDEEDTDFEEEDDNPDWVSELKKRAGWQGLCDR
The next test addresses T1, PFTAIRE2 (Homo sapiens, UniProt Q96Q40).
T1 construct: gene CDK15
Put shortly:
as §1

The target of another test is MAP3K4 (Homo sapiens, UniProt Q9Y6R4). Put shortly: as §1
Another test has as its target PIK3CA(E545K) (Homo sapiens, UniProt P42336, E545K). The method, boiled down: as §1
The target of another test is IRAK1 (Homo sapiens, UniProt P51617). The method, boiled down: as §1
A further test concerns the target CSNK1A1 (Homo sapiens, UniProt P48729). The method, boiled down:
as §1

In another test the target is HCK (Homo sapiens, UniProt P08631). The method, boiled down:
as §1

The target in a further test is GRK4 (Homo sapiens, UniProt P32298). Put shortly: as §1
Sequence of GRK4 (P32298 whole entry): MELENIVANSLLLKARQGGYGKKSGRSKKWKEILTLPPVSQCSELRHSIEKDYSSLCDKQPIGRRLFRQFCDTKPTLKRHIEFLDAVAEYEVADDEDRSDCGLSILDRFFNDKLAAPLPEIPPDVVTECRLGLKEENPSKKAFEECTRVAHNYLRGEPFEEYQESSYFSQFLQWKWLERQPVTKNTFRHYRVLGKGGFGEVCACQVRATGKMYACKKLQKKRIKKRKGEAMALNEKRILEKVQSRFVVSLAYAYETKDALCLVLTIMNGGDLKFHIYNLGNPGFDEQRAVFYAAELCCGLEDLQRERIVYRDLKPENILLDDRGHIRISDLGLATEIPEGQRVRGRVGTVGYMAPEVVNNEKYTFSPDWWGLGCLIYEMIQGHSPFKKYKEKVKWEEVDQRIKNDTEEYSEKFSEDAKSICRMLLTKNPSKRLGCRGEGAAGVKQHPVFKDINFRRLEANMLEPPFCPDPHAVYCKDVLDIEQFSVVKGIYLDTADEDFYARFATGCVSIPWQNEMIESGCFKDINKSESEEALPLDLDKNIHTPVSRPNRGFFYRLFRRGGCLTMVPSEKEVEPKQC
Another test addresses ROCK2 (Homo sapiens, UniProt O75116). The method, boiled down:
as §1

For another test, the target named is MAP4K4 (Homo sapiens, UniProt O95819). Put shortly: as §1
The target of the next test is DAPK1 (Homo sapiens, UniProt P53355). Put shortly:
as §1

For the next test, the target named is PHKG1 (Homo sapiens, UniProt Q16816). Put shortly: as §1
For another test, the target named is T2, PCTK1 (Homo sapiens, UniProt Q00536).
T2 construct: gene CDK16
Put shortly:
as §1

For test [1], the target named is T3, ABL1(F317I)-phosphorylated (Homo sapiens, UniProt P00519, F317I).
T3 construct: phosphorylated
Put shortly: as §1

The target of a further test is SRPK1 (Homo sapiens, UniProt Q96SB4). The method, boiled down:
as §1

The next test has as its target T4, NIK (Homo sapiens, UniProt Q99558).
T4 construct: gene MAP3K14
Put shortly: as §1

The next test addresses RET(M918T) (Homo sapiens, UniProt P07949, M918T). Put shortly: as §1
In another test the target is TGFBR1 (Homo sapiens, UniProt P36897). The method, boiled down: as §1
Another test addresses PIK3C2G (Homo sapiens, UniProt O75747). The method, boiled down:
as §1

The next test deals with T5, ICK (Homo sapiens, UniProt Q9UPZ9).
T5 construct: gene CILK1
T5 sequence (Q9UPZ9 whole entry): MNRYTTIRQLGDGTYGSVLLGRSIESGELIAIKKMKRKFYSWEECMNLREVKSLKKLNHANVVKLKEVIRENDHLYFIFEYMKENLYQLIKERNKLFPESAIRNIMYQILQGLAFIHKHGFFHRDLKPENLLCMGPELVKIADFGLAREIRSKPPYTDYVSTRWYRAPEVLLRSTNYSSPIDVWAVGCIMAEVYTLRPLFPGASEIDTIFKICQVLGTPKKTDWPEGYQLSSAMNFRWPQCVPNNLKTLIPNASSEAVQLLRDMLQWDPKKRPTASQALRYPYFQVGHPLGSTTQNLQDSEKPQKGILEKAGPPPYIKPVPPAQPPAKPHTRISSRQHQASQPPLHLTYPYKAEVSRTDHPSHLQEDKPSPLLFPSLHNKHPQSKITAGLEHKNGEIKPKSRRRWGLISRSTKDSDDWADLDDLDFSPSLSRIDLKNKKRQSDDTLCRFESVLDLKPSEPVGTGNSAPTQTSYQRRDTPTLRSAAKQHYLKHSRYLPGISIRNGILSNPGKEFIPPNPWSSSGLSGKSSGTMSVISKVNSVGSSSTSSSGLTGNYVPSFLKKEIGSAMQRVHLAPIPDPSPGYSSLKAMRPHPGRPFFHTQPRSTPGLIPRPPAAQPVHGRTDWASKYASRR
The method, boiled down: as §1

Test [2] deals with T6, RSK4(Kin.Dom.2-C-terminal) (Homo sapiens, UniProt Q9UK32).
T6 construct: gene RPS6KA6; Kin.Dom.2-C-terminal
The method, boiled down: as §1

Another test has as its target PRKD1 (Homo sapiens, UniProt Q15139). The method, boiled down:
as §1

Where two headings read alike, the source gives them in different places.

Sequence of DAPK1 (P53355 whole entry): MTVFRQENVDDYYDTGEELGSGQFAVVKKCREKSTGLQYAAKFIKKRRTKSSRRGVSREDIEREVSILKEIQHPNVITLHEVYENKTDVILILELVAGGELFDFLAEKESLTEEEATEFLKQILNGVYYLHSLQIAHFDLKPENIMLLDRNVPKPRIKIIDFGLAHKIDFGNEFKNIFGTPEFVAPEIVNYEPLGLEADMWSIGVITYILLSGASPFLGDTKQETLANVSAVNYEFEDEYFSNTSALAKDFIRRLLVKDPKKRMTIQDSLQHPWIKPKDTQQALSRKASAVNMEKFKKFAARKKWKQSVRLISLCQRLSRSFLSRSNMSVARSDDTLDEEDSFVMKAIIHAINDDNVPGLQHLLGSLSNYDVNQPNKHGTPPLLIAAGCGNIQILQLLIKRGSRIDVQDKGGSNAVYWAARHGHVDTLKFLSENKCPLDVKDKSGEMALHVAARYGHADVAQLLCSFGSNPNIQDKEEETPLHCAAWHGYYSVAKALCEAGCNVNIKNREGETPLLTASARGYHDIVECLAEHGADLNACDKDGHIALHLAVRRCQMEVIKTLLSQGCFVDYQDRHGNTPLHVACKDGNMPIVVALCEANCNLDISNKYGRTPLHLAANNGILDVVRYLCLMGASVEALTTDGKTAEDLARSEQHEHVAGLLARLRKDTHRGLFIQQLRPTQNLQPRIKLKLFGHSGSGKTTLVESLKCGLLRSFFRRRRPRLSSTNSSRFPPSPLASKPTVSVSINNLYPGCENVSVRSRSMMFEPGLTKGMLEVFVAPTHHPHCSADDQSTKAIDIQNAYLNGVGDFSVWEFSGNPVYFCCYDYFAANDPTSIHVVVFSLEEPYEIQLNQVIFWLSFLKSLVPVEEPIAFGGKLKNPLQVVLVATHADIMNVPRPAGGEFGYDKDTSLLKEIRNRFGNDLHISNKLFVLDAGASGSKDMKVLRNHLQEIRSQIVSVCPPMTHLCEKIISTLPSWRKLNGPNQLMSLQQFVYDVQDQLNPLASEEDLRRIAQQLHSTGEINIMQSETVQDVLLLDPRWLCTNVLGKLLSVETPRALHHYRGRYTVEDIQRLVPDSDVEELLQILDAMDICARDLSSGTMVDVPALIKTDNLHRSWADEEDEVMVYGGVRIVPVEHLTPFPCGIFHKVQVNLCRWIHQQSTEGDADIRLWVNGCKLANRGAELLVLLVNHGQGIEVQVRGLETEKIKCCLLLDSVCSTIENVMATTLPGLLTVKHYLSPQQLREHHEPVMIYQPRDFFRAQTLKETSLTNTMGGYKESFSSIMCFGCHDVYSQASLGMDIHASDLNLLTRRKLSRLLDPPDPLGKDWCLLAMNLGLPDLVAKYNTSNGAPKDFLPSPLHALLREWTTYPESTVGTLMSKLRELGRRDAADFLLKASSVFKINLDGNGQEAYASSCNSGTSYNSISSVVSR
Sequence of CSNK1A1 (P48729 whole entry): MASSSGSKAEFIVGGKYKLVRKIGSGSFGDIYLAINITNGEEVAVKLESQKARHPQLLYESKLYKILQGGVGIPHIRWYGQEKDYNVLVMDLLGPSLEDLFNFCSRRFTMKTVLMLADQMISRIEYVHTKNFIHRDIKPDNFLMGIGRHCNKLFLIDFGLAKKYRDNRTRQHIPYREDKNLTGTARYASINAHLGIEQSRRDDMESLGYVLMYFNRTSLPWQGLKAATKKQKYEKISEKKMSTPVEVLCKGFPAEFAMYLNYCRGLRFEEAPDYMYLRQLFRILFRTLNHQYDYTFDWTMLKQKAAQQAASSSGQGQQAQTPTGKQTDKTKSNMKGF
T1 sequence (Q96Q40 whole entry): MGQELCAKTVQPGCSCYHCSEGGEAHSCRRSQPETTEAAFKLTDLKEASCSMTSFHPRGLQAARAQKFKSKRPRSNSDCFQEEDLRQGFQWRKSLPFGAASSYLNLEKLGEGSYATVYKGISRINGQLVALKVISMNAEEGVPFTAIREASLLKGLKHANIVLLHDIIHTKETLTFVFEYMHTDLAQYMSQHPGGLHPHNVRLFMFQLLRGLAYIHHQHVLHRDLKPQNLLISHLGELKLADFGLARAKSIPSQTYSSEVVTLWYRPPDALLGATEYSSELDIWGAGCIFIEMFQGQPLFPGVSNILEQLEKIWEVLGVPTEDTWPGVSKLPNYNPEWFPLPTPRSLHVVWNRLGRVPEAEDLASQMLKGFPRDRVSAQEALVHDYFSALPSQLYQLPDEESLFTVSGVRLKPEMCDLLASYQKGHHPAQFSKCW
Sequence of RET(M918T) (P07949 whole entry M918T): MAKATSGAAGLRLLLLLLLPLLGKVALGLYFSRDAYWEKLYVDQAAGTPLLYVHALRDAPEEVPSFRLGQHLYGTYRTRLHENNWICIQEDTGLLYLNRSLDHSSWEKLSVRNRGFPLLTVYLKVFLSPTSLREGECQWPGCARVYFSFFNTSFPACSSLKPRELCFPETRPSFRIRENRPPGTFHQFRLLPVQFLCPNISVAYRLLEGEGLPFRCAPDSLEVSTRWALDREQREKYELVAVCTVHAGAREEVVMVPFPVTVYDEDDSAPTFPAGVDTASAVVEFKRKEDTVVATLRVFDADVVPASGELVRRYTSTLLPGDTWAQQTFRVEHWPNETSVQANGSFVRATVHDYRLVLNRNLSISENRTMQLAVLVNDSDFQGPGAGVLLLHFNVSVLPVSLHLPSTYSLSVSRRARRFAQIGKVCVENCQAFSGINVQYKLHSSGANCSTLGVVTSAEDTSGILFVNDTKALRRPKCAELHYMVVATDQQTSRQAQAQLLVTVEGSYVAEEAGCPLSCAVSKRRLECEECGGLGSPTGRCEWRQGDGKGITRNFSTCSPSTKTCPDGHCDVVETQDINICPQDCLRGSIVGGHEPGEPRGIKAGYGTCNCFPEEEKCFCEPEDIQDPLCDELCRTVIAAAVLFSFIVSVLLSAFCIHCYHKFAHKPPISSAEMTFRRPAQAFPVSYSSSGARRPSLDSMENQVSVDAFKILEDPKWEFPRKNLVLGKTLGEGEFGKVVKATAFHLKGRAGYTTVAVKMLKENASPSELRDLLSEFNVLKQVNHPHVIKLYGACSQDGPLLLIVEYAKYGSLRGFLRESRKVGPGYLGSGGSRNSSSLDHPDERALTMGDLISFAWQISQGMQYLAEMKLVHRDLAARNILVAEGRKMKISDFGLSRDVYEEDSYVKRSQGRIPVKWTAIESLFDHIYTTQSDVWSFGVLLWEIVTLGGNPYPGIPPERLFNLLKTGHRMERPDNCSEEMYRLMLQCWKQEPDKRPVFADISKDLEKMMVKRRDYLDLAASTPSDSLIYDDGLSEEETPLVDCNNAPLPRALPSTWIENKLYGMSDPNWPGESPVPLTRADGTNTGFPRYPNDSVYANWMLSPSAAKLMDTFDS

In the case of `O=C(/C=C/c1cnccc1-c1ccc(F)cc1)Nc1ccc(CCc2nnco2)cc1` [T-418, (2E)-3-(4-(4-fluorophenyl)pyridin-3-yl)-N-(4-(2-(1,3,4-oxadiazol-2-yl)ethyl)phenyl)acrylamide], the remaining binding at 0.3 µM is 100% at NEK3 (sheet T-418); 92% at PFTAIRE2 (sheet T-418); 68% at MAP3K4 (sheet T-418); 82% at PIK3CA(E545K) (sheet T-418); 100% at IRAK1 (sheet T-418); 100% at CSNK1A1 (sheet T-418). For the same compound, the remaining binding at 0.3 µM at HCK (sheet T-418) was determined as 100%; on GRK4 (sheet T-418), 100%; on ROCK2 (sheet T-418) it was 92%; at MAP4K4 (sheet T-418) it was 89%; at DAPK1 (sheet T-418) it was 100%; on PHKG1 (sheet T-418) it was 90%. Further, the remaining binding at 0.3 µM stood at 98% on PCTK1 (sheet T-418); 100% in test [1] (sheet T-418); 61% at SRPK1 (sheet T-418); 100% at NIK (sheet T-418); 98% on RET(M918T) (sheet T-418); 94% at TGFBR1 (sheet T-418). Further, the remaining binding at 0.3 µM at PIK3C2G (sheet T-418) is 95%; on ICK (sheet T-418), 100%; in test [2] (sheet T-418), 100%; at PRKD1 (sheet T-418), 96%.

Consider `Cc1ncccc1Oc1sc(C(N)=O)c2c1-c1c(cnn1C)CC2` [T-474, 1-methyl-8-((2-methylpyridin-3-yl)oxy)-4,5-dihydro-1H-thieno[3,4-g]indazole-6-carboxamide], for which the remaining binding at 0.3 µM at NEK3 was found to be 100%; on PFTAIRE2, 100%; at MAP3K4 it was 72%; at PIK3CA(E545K), 100%; at IRAK1, 100%; on CSNK1A1, 98%. Also, the remaining binding at 0.3 µM was 100% at HCK; 100% at GRK4; 81% on ROCK2; 83% at MAP4K4; 100% on DAPK1; 100% at PHKG1. Moreover, the remaining binding at 0.3 µM at PCTK1 is 100%; in [1], 100%; on SRPK1 it was 100%; at NIK, 100%; on RET(M918T), 100%; at TGFBR1, 81%. In addition, the remaining binding at 0.3 µM was 92% at PIK3C2G, 100% at ICK, 100% in test [2] and 96% on PRKD1.
